In ChEMBL document CHEMBL2073903, “The expression of P-glycoprotein does influence the distribution of novel fluorescent compounds in solid tumour models” (Br J Cancer, 2003):

Target: ATP-dependent translocase ABCB1 (Homo sapiens, UniProt P08183)
Assay: TP_TRANSPORTER: ATPase assay in reconstituted P-gp
Format: functional

Sequence of ATP-dependent translocase ABCB1 (P08183 whole entry): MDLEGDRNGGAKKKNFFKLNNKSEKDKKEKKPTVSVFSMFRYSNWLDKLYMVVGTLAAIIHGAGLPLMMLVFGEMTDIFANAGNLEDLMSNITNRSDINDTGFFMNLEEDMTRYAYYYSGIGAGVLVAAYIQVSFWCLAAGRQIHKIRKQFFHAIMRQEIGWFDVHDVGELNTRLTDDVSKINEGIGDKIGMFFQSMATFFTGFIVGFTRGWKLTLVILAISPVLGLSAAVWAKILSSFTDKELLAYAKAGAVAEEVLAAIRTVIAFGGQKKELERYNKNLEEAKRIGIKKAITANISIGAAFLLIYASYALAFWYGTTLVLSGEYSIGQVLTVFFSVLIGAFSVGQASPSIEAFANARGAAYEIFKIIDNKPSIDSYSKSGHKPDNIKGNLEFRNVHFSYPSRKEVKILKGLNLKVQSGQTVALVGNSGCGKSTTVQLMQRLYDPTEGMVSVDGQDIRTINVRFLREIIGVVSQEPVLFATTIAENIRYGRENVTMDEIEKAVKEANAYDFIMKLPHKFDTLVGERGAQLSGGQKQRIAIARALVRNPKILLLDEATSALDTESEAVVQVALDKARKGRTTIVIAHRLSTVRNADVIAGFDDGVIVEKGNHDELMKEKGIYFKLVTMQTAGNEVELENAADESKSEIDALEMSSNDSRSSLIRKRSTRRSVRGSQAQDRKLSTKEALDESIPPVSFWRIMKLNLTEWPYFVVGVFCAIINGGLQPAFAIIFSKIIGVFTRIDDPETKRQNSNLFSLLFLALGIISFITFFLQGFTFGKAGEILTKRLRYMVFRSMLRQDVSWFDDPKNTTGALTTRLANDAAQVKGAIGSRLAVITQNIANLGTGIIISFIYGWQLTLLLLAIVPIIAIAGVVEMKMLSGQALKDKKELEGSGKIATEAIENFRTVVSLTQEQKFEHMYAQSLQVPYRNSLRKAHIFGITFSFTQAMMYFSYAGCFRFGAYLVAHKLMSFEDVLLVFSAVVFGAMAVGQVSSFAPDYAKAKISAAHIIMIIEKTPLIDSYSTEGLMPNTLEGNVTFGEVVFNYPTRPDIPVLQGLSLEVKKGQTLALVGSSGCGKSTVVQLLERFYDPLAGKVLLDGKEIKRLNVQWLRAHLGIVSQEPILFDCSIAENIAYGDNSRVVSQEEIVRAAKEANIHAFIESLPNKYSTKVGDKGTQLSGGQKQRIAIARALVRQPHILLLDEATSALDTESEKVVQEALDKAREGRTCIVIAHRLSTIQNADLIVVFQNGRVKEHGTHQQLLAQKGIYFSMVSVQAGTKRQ

## CC(=O)O[C@H]1C(=O)[C@@]2(C)C([C@H](OC(=O)c3ccccc3)[C@]3(O)C[C@H](OC(=O)[C@H](O)[C@@H](NC(=O)CCC4=[N+]5C(=Cc6c(C)cc(C)n6[B-]5(F)F)C=C4)c4ccccc4)C(C)=C1C3(C)C)[C@]1(OC(C)=O)CO[C@@H]1C[C@@H]2O (stereo partly specified)
  Activity: substrate [+]
